8 compounds from ChEMBL document CHEMBL1147040, “Potent inhibition of HIV-1 replication by novel non-peptidyl small molecule inhibitors of protease dimerization” (J Biol Chem, 2007) can be followed below.

A word on the Ki: it is the equilibrium dissociation constant of an inhibitor or competing ligand from its target. A lower Ki goes with tighter binding. One may read the IC50 as the concentration that gives 50% inhibition. Low values mean greater potency, high ones weaker potency.

The source made the active and inactive calls. The calls are words filed in the database; no cut-off is given here.

Assay [1] concerns the target Protease (Human immunodeficiency virus 1, UniProt Q9YQ12). Description: Inhibition of HIV1 protease.
Assay [2] has as its target Protease (Human immunodeficiency virus 1) (UniProt Q9YQ12). Description: Inhibition of HIV1 protease dimerization in COS7 cells at 1 uM.
In assay [3] the test system is Human immunodeficiency virus 1. Nature of the assay: Antiviral activity against HIV1 LAI in MT2 cells. Type of assay: functional, organism-based. The conditions noted are these: Human immunodeficiency virus 1, LAI.

Sequence of Protease (Q9YQ12 whole entry): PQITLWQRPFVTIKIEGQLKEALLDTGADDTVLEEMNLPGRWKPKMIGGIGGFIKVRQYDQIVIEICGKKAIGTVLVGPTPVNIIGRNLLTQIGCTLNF
Sequence of Protease (Human immunodeficiency virus 1) (Q9YQ12 as listed by the source): as the sequence (Q9YQ12 whole entry) above

On to `CC(C)CN(C[C@@H](O)[C@H](CSc1ccccc1)NC(=O)O[C@@H]1C[C@@H]2CCO[C@@H]2C1)S(=O)(=O)c1ccc(CO)cc1`, for which affinity in assay [1] was put at a Ki of 0.029 nM. For the same compound, in assay [2], the result was Active. The same compound returned an IC50 in assay [3] of 5 nM.

In assay [1], `CC(C)CN(C[C@@H](O)[C@H](Cc1ccccc1)NC(=O)O[C@H]1CO[C@H]2OCC[C@H]21)S(=O)(=O)c1ccc2c(c1)OCO2` came in with a Ki of 0.014 nM. In assay [2], the outcome was Active. Moreover, the IC50 in assay [3] was determined as 0.4 nM.

As for `COc1ccc(S(=O)(=O)N(CC(C)C)C[C@@H](O)[C@H](Cc2ccccc2)NC(=O)C[C@H]2CO[C@H]3OCC[C@@H]23)cc1`, the outcome in assay [2] was Active. Moreover, in assay [3], the half-maximal inhibitory concentration (IC50) was determined as 480 nM.

The compound `CC(C)CN(C[C@@H](O)[C@H](Cc1ccccc1)NC(=O)O[C@@H]1C[C@@H]2CCO[C@@H]2C1)S(=O)(=O)c1ccc(CO)cc1` had a Ki in assay [1] of 0.0035 nM. Moreover, in assay [2], the result was Active. The same compound returned an IC50 in assay [3] of 1.4 nM.

`CCC[C@@]1(CCc2ccccc2)CC(O)=C([C@H](CC)c2cccc(NS(=O)(=O)c3ccc(C(F)(F)F)cn3)c2)C(=O)O1` showed a half-inhibitory concentration (IC50) in assay [3] of 100 nM.

On to `COc1ccc(S(=O)(=O)N(CC(C)C)C[C@@H](O)[C@H](Cc2ccccc2)NC(=O)O[C@H]2CO[C@H]3OCC[C@H]32)cc1`, for which the result in assay [2] was Active. In assay [3], this compound yielded an IC50 of 0.3 nM.

Regarding `CC(C)CN(C[C@@H](O)[C@H](Cc1ccccc1)NC(=O)O[C@H]1CO[C@H]2OCC[C@H]21)S(=O)(=O)c1ccc(N)cc1`, the outcome in assay [2] was Active. For the same compound, the midpoint of inhibition in assay [3], the IC50, lay at 3.4 nM.

In assay [1], `Cc1nc(COc2ccc(C[C@H](NC(=O)O[C@H]3CO[C@H]4OCC[C@H]43)[C@H](O)CN(CC(C)C)S(=O)(=O)c3ccc4c(c3)OCO4)cc2)cs1` [BRECANAVIR] gave a Ki of 0.0068 nM. Moreover, the outcome in assay [2] was Active. Further, the IC50 in assay [3] was 0.2 nM.
